# Laboratory results: paper PMC6365646, “Oxidative Pathways of Deoxyribose and Deoxyribonate Catabolism” (mSystems, 2019)
# Biological target: T1, deoxyribose dehydrogenase (iorAB-like dehydrogenase) (Pseudomonas simiae, UniProt A0A1N7UDX6)
# T1 construct: gene PS417_10885; each subunit His-tagged (pET32a) in E. coli BL21(DE3), bands at 80 kDa (10885) and 17 kDa (10890); not purified, two clarified lysates mixed; native cytochrome c PS417_10880 not included; with Isoquinoline 1-oxidoreductase subunit alpha-like (deoxyribose dehydrogenase small subunit)
# T1 sequence (A0A1N7UDX6 2-739): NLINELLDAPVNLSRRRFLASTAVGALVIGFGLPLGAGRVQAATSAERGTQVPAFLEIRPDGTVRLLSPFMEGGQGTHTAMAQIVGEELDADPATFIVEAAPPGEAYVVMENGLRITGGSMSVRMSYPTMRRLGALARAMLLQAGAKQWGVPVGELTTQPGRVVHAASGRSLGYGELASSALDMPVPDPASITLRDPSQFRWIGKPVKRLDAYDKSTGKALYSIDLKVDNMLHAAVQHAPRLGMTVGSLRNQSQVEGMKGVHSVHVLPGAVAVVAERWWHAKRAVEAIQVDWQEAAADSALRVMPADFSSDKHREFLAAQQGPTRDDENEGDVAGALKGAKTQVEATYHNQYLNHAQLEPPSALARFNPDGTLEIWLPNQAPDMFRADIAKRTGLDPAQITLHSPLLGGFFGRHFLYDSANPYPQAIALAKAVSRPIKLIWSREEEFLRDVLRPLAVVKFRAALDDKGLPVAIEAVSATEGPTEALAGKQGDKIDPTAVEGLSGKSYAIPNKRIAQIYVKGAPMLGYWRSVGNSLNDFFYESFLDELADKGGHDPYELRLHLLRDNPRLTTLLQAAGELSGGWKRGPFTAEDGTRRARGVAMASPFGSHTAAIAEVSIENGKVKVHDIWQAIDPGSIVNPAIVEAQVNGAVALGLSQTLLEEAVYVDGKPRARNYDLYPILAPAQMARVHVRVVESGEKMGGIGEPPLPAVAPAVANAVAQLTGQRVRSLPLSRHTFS
# T1 sequence (A0A1N7UJP4 1-151 partner): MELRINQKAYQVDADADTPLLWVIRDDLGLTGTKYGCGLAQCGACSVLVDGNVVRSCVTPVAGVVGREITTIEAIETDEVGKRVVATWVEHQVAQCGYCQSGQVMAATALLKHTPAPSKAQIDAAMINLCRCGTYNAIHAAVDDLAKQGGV
# Assay: LC-MS/MS detection of deoxyribonate product, mixed E. coli lysates against empty-vector lysate
# Assay type: biochemical
# Conditions: 1 mM deoxyribose, 100 uM phenazine methosulfate as electron acceptor, 100 mM NH4HCO3, room temperature, 1 h, with or without lactonase
SMILES,"LC-MS/MS detection of deoxyribonate product, mixed E. coli lysates against empty (may form through spontaneous or lysate hydrolysis of deoxyribono)","LC-MS/MS detection of deoxyribonate product, mixed E. coli lysates against empty"
O=C(O)C[C@H](O)[C@H](O)CO [2-deoxy-D-ribonate],this product had a fragmentation pattern very similar to that of a 2-deoxy-D-ribonate standard,–
OC[C@H]1OC(O)C[C@@H]1O (stereo partly drawn) [2-deoxy-D-ribose],–,The iorAB-like dehydrogenase converted deoxyribose to a compound with the same mass-to-charge ratio
